These results are taken from article PMC8234803, “In Vitro Metabolism of Six C-Glycosidic Flavonoids from Passiflora incarnata L” (International Journal of Molecular Sciences, 2021).

Series [1] is described as follows: Stability testing in test buffer (HBSS pH 6.0) under assay conditions, HPLC-DAD. Type of series: physicochemical. To be noted: 10 µM in HBSS pH 6.0, 37 °C, 5% CO2; after 3 h of incubation. As to the method: To guarantee the stability of all test substances during the metabolism assay on Caco-2 cells, they were incubated in the test buffer under assay conditions. Test samples were collected each hour for 5 h and were measured via HPLC-DAD.
To ensure stability during the Caco-2 metabolism experiments, all test substances were dissolved in DMSO to a concentration of 20 mM and diluted to 10 µM in an appropriate volume of HBSS (pH 6.0), resulting in a DMSO concentration of less than 1%. The test solution (1 mL) was aliquoted into a 12-well Transwell® plate and incubated for 5 h in an atmosphere of 5% CO2 and 90% relative humidity at 37 °C. Test samples (100 µL) were collected after t = 0, 1, 2, 3, 4, and 5 h and measured via HPLC-DAD. The peak area of the test substance at time t = 0 h was defined as 100%, and all other peak areas were related to calculate the proportional stability. The stability was calculated as % = area/area0 × 100. Stability testing was performed on three independent days with freshly prepared solutions (n = 3).
The system consisted of the following: Elite LaChrom with an L2200 autosampler, L2130 pump, L2350 column oven, L2444 DAD, and EZChrom Elite 3.1.7 software (Hitachi, Tokyo, Japan); column: Kinetex® Biphenyl, 100 Å, 250-4.6 mm (5 µm, same material precolumn; Phenomenex, Torrance, CA, USA); injection volume 30 µL; oven temp.: 25 °C; autosampler temp.: 10 °C; detection wavelength: 340 nm; flow: 1.2 mL/min; A = H2O + 0.1% TFA, B = acetonitrile + 0.1% TFA; gradient: 0–2 min 10% B, 2–10 min 10% B → 100% B, 10–11 min 100% B → 10% B, 11–15 min 10% B.

Series [2] is described as follows: MTT assay under metabolic conditions (cell viability). Type of series: cell-based, human. To be noted: human, 5 h incubation, read-out: Viability of Caco-2 cells. As for the experimental part: (§1) All six substances were tested in five different dilutions in HBSS (pH 6.0). The determined viability values of O, IO, S, IS, V, and IV are listed in the Supplementary Materials (Figure S2).
(§2) Caco-2 cells in the logarithmic growth phase were seeded in 96-well plates at a density of 3 × 10^4 cells/well and incubated at 37 °C in an atmosphere of 5% CO2 and constant moisture in an incubator. After 24 h, the cell culture medium was removed, and 100 µL of HBSS solution (negative control), 0.5% DMSO in HBSS solution (solvent control), or flavonoid samples in HBSS solution (6 flavonoids at concentrations of 10, 25, 50, 75, and 100 µM) was applied in quintuplicate and incubated for 5 h. Afterwards, the HBSS solutions were removed and replaced with an MTT solution in DMEM (0.4 mg/mL) and incubated for another 3 h at 37 °C. Then, the MTT solution was discarded, and the cells were fixed with a 10% SDS solution in PBS and stored at room temperature in the dark. After 24 h, the absorbance was measured on a Tecan microplate reader (Tecan Trading AG, Switzerland) at 560 nm. The viability rate was calculated as % = A/A0 × 100, with A as the average absorbance value of the treatment and solvent control groups and A0 as the average absorbance value of the negative control group. The assay was performed three times in pentaplicate.
(§3) The human colon adenocarcinoma cell line Caco-2 was obtained from the ATCC (American Type Culture Collection, Manassas, VA, USA). The cell line was determined to be free of mycoplasma contamination by PCR and culture from GATC Biotech AG (Konstanz, Germany). The cells were cultured in DMEM supplemented with 10% (v/v) FBS, 1% (v/v) NEAA, and 1% (v/v) antibiotics (penicillin/streptomycin) in an atmosphere of 5% CO2 and 90% relative humidity at 37 °C. The culture medium was replaced every 3 days, and the cells were split 1:5 using trypsin-EDTA once 90% confluence was obtained.
For orientation: Tetrazolium assays rely on reduction of a dye to a coloured formazan, in cell work by metabolically active cells.

The next series concerns Caco-2 cells. The series is described as above. To be noted: 10, 25, 50, 75, 100 µM in HBSS (pH 6.0), 5 h incubation. It is filed as cell-based, human. As to the method:
as §1, §2, §3

Another series deals with Caco-2 cell monolayer. Briefly: Caco-2 monolayer metabolism experiment, metabolites identified via UHPLC-DAD-MS(/MS). Type of series: in vitro ADME, human. The following applies: for Possible metabolite detected: initial concentration 100 µM. As for the experimental part: To obtain information on the in vitro metabolism of the six tested C-glycosidic flavonoids in the intestine, experiments were carried out using the Caco-2 monolayer model (Figure 2). Metabolite profiles were characterized at two different concentrations (10 and 100 µM; n = 3) and after two different incubation times (3 or 5 h; n = 3) in order to determine the influence of concentration and time on the metabolism reactions that occurred. Furthermore, to analyze the distribution of the observed metabolites, samples were collected from the cell lysate and the apical and basolateral compartments. All samples of the metabolism experiments using the Caco-2 cell monolayer were analyzed using UHPLC-DAD-MS and UHPLC-DAD-MS/MS. Metabolites were identified by libraries that were prepared for each compound (Tables S1–S6). The O and IO libraries contained 67 metabolites (Tables S1 and S2), the S and IS libraries contained 106 metabolites (Tables S3 and S4), and the V and IV libraries contained 71 possible metabolites (Tables S5 and S6).
To form a confluent and differentiated monolayer, cells at passages 16–45 were seeded into the inserts of 12-well Transwell® plates at a density of 3.0 × 10^5 cells/cm^2. Afterwards, the culture medium was replaced every day, and the metabolism experiment was performed 21 days after seeding. The apical and basolateral compartments contained 0.5 and 1.5 mL of cell culture medium, respectively.
On day 21, the cell culture medium was removed from the apical and basolateral compartments, and the Caco-2 cell monolayer was washed two times with prewarmed HBSS. The Transwell® plates containing HBSS were incubated at 37 °C for 15 min to measure the transepithelial electrical resistance (TEER) value. The integrity of the cell monolayers was evaluated by TEER values between the apical and basolateral sides with the Evohm2 system (World Precision Instruments, Sarasota, FL, USA). The cell inserts were only used for the metabolism experiments if the resistance exceeded 350 Ω/cm^2. The six test substances were dissolved in DMSO to a stock solution of 20 mM. The HBSS was adjusted to pH 6.0 and 7.4 with 1 M HCl. Afterwards, the stock solutions were diluted to 10 or 100 µM in an appropriate volume of HBSS (pH 6.0) to obtain a DMSO concentration of <1%. The test solutions were added to the apical side (0.5 mL), while the basolateral side was filled with 1.5 mL of HBSS (pH 7.4). The Transwell® plates were incubated at 37 °C for 3 or 5 h, respectively. After this period, solutions from the apical and basolateral compartments were collected in separate tubes, washed twice with 500 µL of HBSS, and then collected again. The samples were lyophilized and stored at −20 °C until they were measured using UHPLC-DAD-MS. After the experiment, Transwell® inserts were apically (0.5 mL) and basolaterally (1.5 mL) filled with HBSS and warmed to 37 °C for 20 min. Then, the TEER values were measured to guarantee the integrity of the monolayer during the experiment. The experiment was performed in triplicate for each substance, concentration, and incubation time.
After the metabolism experiment, cell monolayers were washed twice with PBS and incubated with 200 µL of trypsin-EDTA for 10 min at 37 °C in an atmosphere of 5% CO2 and constant humidity in the incubator. The cells were removed from the well by pipetting up and down, and were collected in a tube. The well was washed twice with PBS (1 mL), and the wash solution was also collected in the corresponding tube. The mixture was centrifuged (1000× g rpm, 5 min), and the supernatant was discarded.

The structures appear in SMILES notation.

For the compound `O=c1cc(-c2ccc(O)cc2)oc2c([C@@H]3O[C@H](CO)[C@@H](O)[C@H](O)[C@H]3O)c(O)cc(O)c12` [V, vitexin], the “Stability (content relative to t = 0 h)” value in series [1] is on record as “approximately 100%”. Besides, the viability at 5 h, 10 µM in series [2] (Caco-2, 10 µM in HBSS (pH 6.0)) came out at 92%. For the same compound, in series [2] (Caco-2, 100 µM in HBSS (pH 6.0)), the viability at 5 h, 100 µM turned out to be 83%. For the same compound, in the series with Caco-2 cells, the “Effect on the viability of Caco-2 cells (in words)” value was “slight, concentration-dependent reductions”. Further, the “Extent of metabolism (in words)” value in the series with Caco-2 cell monolayer (10 µM, 3 and 5 h) is “very limited metabolism”; in the series on Caco-2 cell monolayer (100 µM, 3 and 5 h), “a few hydroxylated and methoxylated derivatives”. Moreover, the “Phase II conjugates containing glucuronic acid or sulfates” value in the series with Caco-2 cell monolayer (10 µM, 3 and 5 h) was “No phase II conjugates containing glucuronic acid or sulfates were detectable”. The “Phase II metabolites with glucuronic acid or sulfates” value in the series with Caco-2 cell monolayer (100 µM, 3 and 5 h) is “lacked the presence of phase II metabolites with glucuronic acid or sulfates”. The “Extent of phase I and II metabolism (in words)” value with Caco-2 cell monolayer (independent of incubation time and concentration) was “poorly metabolized in phase I and II reactions”. Further, the Possible metabolite detected result in the series with Caco-2 cell monolayer (3 h, apical compartment) is on record as “Hydroxy-methoxy-vitexin”; in the series with Caco-2 cell monolayer (3 h, basolateral compartment), “Hydroxy-methoxy-vitexin”; in the series on Caco-2 cell monolayer (5 h, apical compartment) it was “Hydroxy-vitexin”.

For orientation: viability means the share of living cells, or the viability signal relative to a control.
